Assay results taken from patent US5061794A, “Cephalosporin derivatives, and antibacterial agents” (priority 1986, dated 1991).
In brackets after ≈: the same amount, converted by molar mass. Read-outs that look alike come from different tables or passages of the source.

Assays:
[1] = system: Enterobacter cloacae GN 5797; experiment: β-lactamase inducibility; type: cell-based; conditions: antibiotic at 50, 10 and 1 μg/ml; cephaloridine as substrate
Procedure: The assay method for induction of β-lactamase by β-latam antibiotics was as follows:
The test organism, Enterobacter cloacae GN 5797, was grown overnight in Mueller Hinton broth (Dlfco Laboratories, Detroit, Mich.) at 37° C. The culture was diluted 10-fold into 20 ml of the flesh medium and incubated with shaking at 37° C. After 2 hours of incubation, antibiotics were added to final concentrations of 50 μg/ml, 10 μg/ml and 1 μg/ml, and the incubation was continued. At 1 hour intervals after the addition of antibiotic, 3 ml of sample was taken, and immediately added with 0.1 ml of 50 mM sodium azide. The cells were harvested and washed with 50 mM phosphate buffer (ph 7.0). The cells were suspended in 5 ml of 50 mM phosphate buffer and disrupted with a sonicater in an ice-water bath. The broken cells were centrifuged at 16,500 G for 40 minutes at 4° C., and the resulting supernatant fluid was used as the crude enzyme. β-Lactamase activity was determined by a sopectrophotometric method (Antmicrob. Agents Chemother. 17, 355-358, 1980) with cephaloridine as substrate. The concentration of protein was determined by the method of Lowry (J. Biol. Chem. 193, 265-275, 1951). […] As a representative example, the compound of EXAMPLE 50 was administered to mice by means of subcutaneous administration, and the concentration in the blood was measured.

[2] = system: E. coli CSH(RE45); experiment: microbe, parasite or virus in culture; type: cell-based; conditions: Escherichia coli, 16 h, read-out: Minimum Inhibitory Concentration (MIC), *E. coli CSH(RE45), lactamase-producing strain; 10^6 CFU/ml
How it was run: (§1)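 Inoculum 10^6 CFU/ml; medium Mueller Hinton agar with graded antibiotic; 37° C./16 h; endpoint MIC (μg/ml).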

[3] = system: E. coli CSH2 (RK1); experiment: microbe, parasite or virus in culture; type: cell-based; conditions: Escherichia coli, 16 h, read-out: Minimum Inhibitory Concentration (MIC), *E. coli CSH2 (RK1), lactamase-producing strain; 10^6 CFU/ml
How it was run: as §1

[4] = system: E. cloacae 963; experiment: in vitro antibacterial activity, agar plate dilution method (MIC); type: cell-based; conditions: 10^6 CFU/ml
How it was run: as §1

[5] = system: E. cloacae Nek 39; experiment: as above; type: cell-based; conditions: Enterobacter cloacae, NEK39, 16 h, read-out: Minimum Inhibitory Concentration (MIC), *E. cloacae Nek 39, lactamase-producing strain; 10^6 CFU/ml
How it was run: as §1

[6] = system: E. coli GN5482; experiment: as above; type: cell-based; conditions: Escherichia coli, GN5482, 16 h
How it was run: as §1

[7] = system: E. coli NIHJ JC2; experiment: as above; type: cell-based; conditions: Escherichia coli, NIHJJC2, 16 h, read-out: Minimum Inhibitory Concentration (MIC), E. coli NIHJ JC2, 10^6 CFU/ml, 37° C.
How it was run: as §1

[8] = system: K. oxytoca GN10650; experiment: as above; type: cell-based; conditions: Klebsiella oxytoca, GN10650, 16 h, read-out: Minimum Inhibitory Concentration (MIC), *K. oxytoca GN10650, lactamase-producing strain; 10^6 CFU/ml
How it was run: as §1

[9] = system: K. pneumoniae No. 42; experiment: as above; type: cell-based; conditions: Klebsiella pneumoniae, NO.42, 16 h, read-out: Minimum Inhibitory Concentration (MIC), *K. pneumoniae No. 42, lactamase-producing strain; 10^6 CFU/ml
How it was run: as §1

[10] = system: K. pneumoniae PCI-602; experiment: as above; type: cell-based; conditions: Klebsiella pneumoniae, PCI602, 16 h, 10^6 CFU/ml
How it was run: as §1

[11] = system: M. morganii GN5407; experiment: as above; type: cell-based; conditions: Morganella morganii, GN5407, 16 h, read-out: Minimum Inhibitory Concentration (MIC), *M. morganii GN5407, lactamase-producing strain; 10^6 CFU/ml
How it was run: as §1

[12] = system: P. vulgaris HX-19; experiment: as above; type: cell-based; conditions: Proteus vulgaris, HX19, 16 h, read-out: Minimum Inhibitory Concentration (MIC)
How it was run: as §1

[13] = system: P. vulgaris No. 33; experiment: as above; type: cell-based; conditions: Proteus vulgaris, 10^6 CFU/ml
How it was run: as §1

[14] = system: S. aureus 209P NIHJ-JC1; experiment: as above; type: cell-based; conditions: Staphylococcus aureus, 16 h, read-out: Minimum Inhibitory Concentration (MIC)
How it was run: as §1

[15] = system: S. marcescens IAM 1184; experiment: as above; type: cell-based; conditions: Serratia marcescens, IAM1184, 16 h, S. marcescens IAM 1184; 10^6 CFU/ml; read-out: Minimum Inhibitory Concentration (MIC)
How it was run: as §1

[16] = system: S. marcescens No. 16-2; experiment: as above; type: cell-based; conditions: Serratia marcescens, NO.162, 16 h
How it was run: as §1

[17] = system: Ps. aeruginosa AK 109; experiment: as above; type: cell-based, Pseudomonas aeruginosa; conditions: Pseudomonas aeruginosa, AK109, 16 h, read-out: Minimum Inhibitory Concentration (MIC)
How it was run: as §1

[18] = system: Ps. aeruginosa AKR17; experiment: as above; type: cell-based, Pseudomonas aeruginosa; conditions: Pseudomonas aeruginosa, AKR17, 16 h, read-out: Minimum Inhibitory Concentration (MIC), Ps. aeruginosa AKR17; 10^6 CFU/ml
How it was run: as §1

[19] = system: Ps. aeruginosa IF03445; experiment: as above; type: cell-based, Pseudomonas aeruginosa; conditions: Pseudomonas aeruginosa, IF03445, 16 h, read-out: Minimum Inhibitory Concentration (MIC), Ps. aeruginosa IF03445; 10^6 CFU/ml
How it was run: as §1

[20] = system: Ps. cepacia 23; experiment: as above; type: cell-based, Pseudomonas cepacia; conditions: Burkholderia cepacia, 16 h; Ps. cepacia 23; 10^6 CFU/ml; read-out: Minimum Inhibitory Concentration (MIC)
How it was run: as §1

[21] = system: A. calcoaceticus No. 4; experiment: as above; type: cell-based, Acinetobacter calcoaceticus; conditions: Acinetobacter calcoaceticus, NO.4, 16 h, 10^6 CFU/ml
How it was run: as §1

[22] = concentration in blood of mice after subcutaneous administration; type: in vivo, mice (ddY type, male); conditions: mouse, sc, 20 mg/kg
[23] = Enterobacter cloacae, 16 h, E. cloacae 963, read-out: Minimum Inhibitory Concentration (MIC)
[24] = NO.33, 16 h, read-out: Minimum Inhibitory Concentration (MIC), *P. vulgaris No. 33, lactamase-producing strain
[25] = read-out: Minimum Inhibitory Concentration (MIC)
[26] = A. calcoaceticus No. 4, read-out: Minimum Inhibitory Concentration (MIC)
[27] = Enterobacter cloacae, 963, 16 h, read-out: Minimum Inhibitory Concentration (MIC), E. cloacae 963
[28] = read-out: Minimum Inhibitory Concentration (MIC), K. pneumoniae PCI-602
[29] = S. aureus 209P NIHJ-JC1, 10^6 CFU/ml, 37° C., 16 hours
[30] = read-out: Minimum Inhibitory Concentration (MIC), *S. marcescens No. 16-2, lactamase-producing strain, 10^6 CFU/ml

SMILES	β-lactamase inducibility [1]	MIC [2]	MIC [3]	MIC [4, 23]	MIC [5]	MIC [7]	MIC [8]	MIC [9]	MIC [11]	MIC ([12]; P. vulgaris HX-19, 10^6 CFU/ml)	MIC [13, 24]	MIC [15]	MIC [18]	MIC [19]	MIC [20]	MIC [21, 26]	MIC [6, 25]	MIC [10, 28]	MIC [16, 30]	MIC [17]	also measured
CC(C)(O/N=C(\C(=O)N[C@@H]1C(=O)N2C(C(=O)O)=C(CSc3nc4cc(O)c(O)cc4o3)CS[C@H]12)c1csc(N)n1)C(=O)O [Example 76, disodium 7 β-[2-(2-aminothiazol-4-yl)-2-(1-carboxylate-1-methylethoxyimino)acetamido]-3-(5,6-dihydroxybenzoxazol-2-yl) thiomethyl-3-cephem-4-carboxylate]	no substantial β-lactamase-inducing activity was observed	–	–	–	–	–	–	–	–	–	–	–	–	–	–	–	–	–	–	–	–
CC(C)(O/N=C(\C(=O)N[C@@H]1C(=O)N2C(C(=O)O)=C(CSc3nnc(-c4ccc(O)c(O)c4)s3)CS[C@H]12)c1csc(N)n1)C(=O)O [Ex. 34]	no substantial β-lactamase-inducing activity was observed	< 0.006 µg/mL	< 0.006 µg/mL	0.1 µg/mL (≈ 0.144 µM)	0.1 µg/mL (≈ 0.144 µM)	0.1 µg/mL (≈ 0.144 µM)	0.025 µg/mL (≈ 0.036 µM)	0.0125 µg/mL (≈ 0.018 µM)	0.05 µg/mL (≈ 0.0721 µM)	< 0.006 µg/mL	0.025 µg/mL (≈ 0.036 µM)	0.025 µg/mL (≈ 0.036 µM)	1.56 µg/mL (≈ 2.25 µM)	0.39 µg/mL (≈ 0.562 µM)	< 0.006 µg/mL	0.05 µg/mL (≈ 0.0721 µM)	–	–	–	–	MIC ([6]; read-out: Minimum Inhibitory Concentration (MIC), *E. coli GN5482, lactamase-producing strain, 10^6 CFU/ml): 0.78 µg/mL (≈ 1.12 µM); MIC ([10]; K. pneumoniae PCI-602, read-out: Minimum Inhibitory Concentration (MIC)): 0.0125 µg/mL (≈ 0.018 µM); MIC [14]: 12.5 µg/mL (≈ 18 µM); MIC [16, 25]: 0.1 µg/mL (≈ 0.144 µM); MIC ([17]; Ps. aeruginosa AK 109, 10^6 CFU/ml): 0.1 µg/mL (≈ 0.144 µM)
CC(C)(ON=C(C(=O)NC1C(=O)N2C(C(=O)O)=C(CSc3nc(C(=O)O)c(-c4ccc(O)c(O)c4)s3)CSC12)c1csc(N)n1)C(=O)O (stereo not drawn) [Ex. 50, trisodium 7β-[2-(2-aminothizaol-4-yl)-2-(1-carboxylate-1-methylethoxyimino)acetamido]-3-[4-carboxylate-5-(3,4-dihydroxyphenyl)thiazol-2-yl]-thiomethyl-3-cephem-4-carboxylate]	–	0.0125 µg/mL	< 0.006 µg/mL	–	0.025 µg/mL	0.39 µg/mL	0.025 µg/mL	0.05 µg/mL	0.025 µg/mL	< 0.006 µg/mL	–	0.025 µg/mL	1.56 µg/mL	0.39 µg/mL	< 0.006 µg/mL	–	0.39 µg/mL	< 0.006 µg/mL	0.78 µg/mL	0.39 µg/mL	MIC [4, 27]: 0.0125 µg/mL; MIC ([13]; 16 h, *P. vulgaris No. 33, lactamase-producing strain, read-out: Minimum Inhibitory Concentration (MIC)): < 0.006 µg/mL; MIC [14, 29]: 50 µg/mL; MIC ([21]; read-out: Minimum Inhibitory Concentration (MIC), A. calcoaceticus No. 4): 0.1 µg/mL; concentration at 0.125 h ([22]; 7.5 min): 60500 ng/mL; concentration at 0.25 h ([22]; 15 min): 67000 ng/mL; concentration at 0.5 h ([22]; 30 min): 52300 ng/mL; concentration at 1 h ([22]; 60 min): 18500 ng/mL; concentration at 2 h ([22]; 120 min): 3100 ng/mL; concentration at 4 h ([22]; 240 min): 220 ng/mL
CC(C)(O/N=C(\C(=O)N[C@@H]1C(=O)N2C(C(=O)O)=C(CSc3ncc(-c4ccc(O)c(O)c4)o3)CS[C@H]12)c1csc(N)n1)C(=O)O [Ex. 64, disodium 7β-[2-(2-aminothiazol-4-yl)-2-(1-carboxylate-1-methylethoxyimino)acetamido]-3-[5-(3,4-dihydroxyphenyl)oxazol-2-yl]thiomethyl-3-cephem-4-carboxylate]	no substantial β-lactamase-inducing activity was observed	0.025 µg/mL	0.0125 µg/mL	–	0.2 µg/mL	0.78 µg/mL	0.1 µg/mL	0.05 µg/mL	0.1 µg/mL	–	0.025 µg/mL	0.1 µg/mL	1.56 µg/mL	0.78 µg/mL	< 0.006 µg/mL	0.2 µg/mL	3.12 µg/mL	0.0125 µg/mL	1.56 µg/mL	0.39 µg/mL	MIC [4, 27]: 0.39 µg/mL; MIC [12]: 0.0125 µg/mL; MIC [14, 29]: 25 µg/mL
CC(C)(ON=C(C(=O)NC1C(=O)N2C(C(=O)O)=C(CSc3nc(-c4ccc(O)c(O)c4)cs3)CSC12)c1csc(N)n1)C(=O)O (stereo not drawn) [Ex. 44, disodium 7β-[2-(2-aminothiazol-4-yl)-2-(1-carboxylate-1-methylethoxyimino)acetamido]-3-[4-(3,4-dihydroxyphenyl)thiazol-2-yl]thiomethyl-3-cephem-4-carboxylate]	no substantial β-lactamase-inducing activity was observed	0.0125 µg/mL	0.0125 µg/mL	0.1 µg/mL	0.1 µg/mL	0.2 µg/mL	0.025 µg/mL	0.1 µg/mL	0.05 µg/mL	–	0.025 µg/mL	0.05 µg/mL	1.56 µg/mL	0.39 µg/mL	< 0.006 µg/mL	0.2 µg/mL	0.39 µg/mL	< 0.006 µg/mL	1.56 µg/mL	0.39 µg/mL	MIC [12]: 0.0125 µg/mL; MIC [14]: 12.5 µg/mL
